Results on three compounds are retold here after US10017511B2, “Pyrazolopyrimidinones for the treatment of impotence and process for the preparation thereof” (COUNCIL OF SCIENTIFIC & INDUSTRIAL RESEARCH, priority 2014, dated 2018).

Assay [1] has as its system conscious rabbit (length of uncovered penile mucosa). The experiment in a line: In vivo efficacy, conscious rabbit model of penile erection. The settings on record: 3 mg/kg intravenous, SNP 0.2 mg/kg 5 min later, measured for an hour, SNP alone values subtracted. The method, then:
. SNP alone was also used as a control and the values obtained were subtracted from both the molecules).
Nitric oxide is the main neurotransmitter which mediates smooth muscle relaxation by activating the guanylate cyclise during penile erection, which in turn increases the cGMP level.
This solution was injected into the ear vein of a group of five healthy male rabbit (3-3.5 kg weight) in a volume of 0.5 ml/kg. The event was followed 5 minutes later by another equal volume saline injection containing Sodium nitroprusside (0.2 mg/kg), which acts as a donor of Nitric oxide (NO). Length of uncovered penile mucosa was measured with a sliding caliper at different time points for an hour after administration of the test compounds. The area under the curve (AUC) was calculated by Graph Pad Software. Controls experiments were performed with the SNP alone injections. […]

The target in assay [2] is human PDE5A (Homo sapiens, UniProt O76074). The experiment in a line: PDE5 enzyme inhibitory assay (PDE Glo Phosphodiesterase Assay).
Protocol: The assays were performed by following the manufacturer recommended protocol.
Data analysis was performed with GraphPad Prism®, version 5.00, for Windows using a sigmoidal dose-response (variable slope) equation. Each point represents an average of two replicates per concentration.

With `CCCc1nn(C)c2c(=O)[nH]c(-c3cc(S(=O)(=O)N4CCC(=O)CC4)ccc3OCC)nc12` [Compound Aa, 5-(2-ethoxy-5-((4-oxopiperidin-1-yl)sulfonyl)phenyl)-1-methyl-3-propyl-1H-pyrazolo[4,3-d]pyrimidin-7(6H)-one], in assay [1], the “area under the curve (AUC) of length of uncovered penile mucosa” value was 722. Further, the IC50 (usually the concentration at which inhibition is half-maximal) in assay [2] was determined as 0.8 nM. Compound `CCCc1nn(C)c2c(=O)[nH]c(-c3cc(S(=O)(=O)N4CCC(O)CC4)ccc3OCC)nc12` [Compound Ab, 5-(2-ethoxy-5-((4-hydroxypiperidin-1-yl)sulfonyl)phenyl)-1-methyl-3-propyl-1H-pyrazolo[4,3-d]pyrimidin-7(6H)-one] registered an IC50 in assay [2] of 4.8 nM. Consider `CCCc1nn(C)c2c(=O)[nH]c(-c3cc(S(=O)(=O)N4CCN(C)CC4)ccc3OCC)nc12` [Sildenafil, reference compound], for which the “area under the curve (AUC) of length of uncovered penile mucosa” value in assay [1] was 330.
